Laboratory results: article PMC11012289, “The Discovery of New Inhibitors of Insulin-Regulated Aminopeptidase by a High-Throughput Screening of 400,000 Drug-like Compounds” (International Journal of Molecular Sciences, 2024)
Where two headings read alike, the source gives them in different places.

Legend:
IRAP [1] = molecular target: T1, IRAP (Homo sapiens, UniProt Q9UIQ6); assay: Thermal shift (TSA) IRAP assay; type: binding
T1 construct: The screen was performed with the soluble truncated IRAP enzyme; made in house
Text: The Thermal shift assay (TSA) is a biophysical technique measuring protein thermal stability. The assay relies on a fluorescent dye that is quenched in an aqueous environment but fluoresces when de-solvated in non-polar environments, such as the hydrophobic pockets of proteins. The target protein is mixed with the dye and heated gradually until it becomes completely denatured; as it unfolds or melts, the dye binds to newly exposed hydrophobic regions of the protein, resulting in a significant increase in fluorescence emission detected by a PCR system. The melting temperature (Tm) is calculated from the protein melt curve, and changes in Tm (known as ΔTm) are correlated with changes in protein stability and ligand binding. […] For the TSA assay, vehicle (DMSO) or compound was dispensed into MicroAmp Endura optical qPCR plates at the desired volume using an Echo acoustic liquid handler. […] The plates were then centrifuged for 10 s at 1000 rpm and sealed with Clear PCR-compatible plate seals.

[2] = set-up: method as in ELF screening history; settings: ref ELF screening history, cited from earlier work; for Enzyme Active: number of ELF enzyme screens in which the compound was active; for Targets active: number of ELF screens in which the compound was active; for Enzyme Active %: share of ELF enzyme targets screened; for Targets Active %: share of all ELF targets screened
IRAP [3] = molecular target: T1, IRAP; assay: Deselection fluorescence IRAP assay with 10 µM zinc; type: biochemical; settings: 10 µM ZnSO4 in assay buffer; for IC50: read-out: Fluorescence + Zn pIC50 (converted)
Experimental: To prepare the assay buffer (50 mM Tris-HCl pH 7.4, 150 mM NaCl, 0.1 mM PMSF, 0.05% BSA) of the primary and orthogonal assays, 1 M Tris-HCl was prepared by dissolving 60.57 g Trizma-base (Mw 121.14 g/mol) (Sigma 93362-250G) in 500 mL MQ water, and the pH was adjusted to 7.4 using 4 M HCl. The solution was filtered with a 0.45 μm filter and stored at room temperature (RT). Then, 2 M NaCl stock was prepared by dissolving 29.22 g NaCl (Mw 58.44 g/mol) (Sigma S7653-250G) in 250 mL MQ water. The solution was filtered with a 0.45 μm filter and stored at RT. Next, 100 mM Phenylmethanesulfonylfluoride (PMSF) stock was prepared by dissolving 1 g PMSF (Mw 174.19 g/mol) (Sigma 78830-1G) in 57.4 mL isopropanol (Sigma I9516-500ML) and stored at 4 °C. A 10% Bovine Serum Albumin (BSA) stock solution was prepared by dissolving 2 g BSA (Mw 66.5 kDa) (Sigma A7030-50G), which was dissolved in 20 mL MQ water. The solution was filtered with a 0.45 μm filter, aliquoted, and stored at −20 °C. For the deselection assay buffer (50 mM Tris-HCl pH 7.4, 150 mM NaCl, 0.1 mM PMSF, 0.05% BSA, 10 μM ZnSO4), 1 mM ZnSO4 solution was prepared by dissolving 28.8 mg ZnSO4 (Mw 287.56 g/mol) (Sigma Z0251-100G) in 100 mL MQ water. The solution was filtered with a 0.45 μm filter and stored at RT. For the TSA assay buffer (50 mM Tris HCL, 150 mM NaCl, pH 7.4), stocks of 1 M Tris HCL and 2 M NaCl were prepared as described above.

IRAP [4] = molecular target: T1, IRAP; assay: Primary fluorescence IRAP assay (L-Leucine-7-amido-4-methylcoumarin cleavage); type: biochemical; settings: for LipE: calculated from (pIC50Fluorescence − LogD); for LogEC50 (best-fit): log of concentration in M; for EC50: read-out: EC50 (best-fit)
Text: The primary biochemical assay was developed to measure the enzymatic activity of IRAP.
To ensure biochemically sound, optimal, robust, and affordable assay conditions for large-scale screening, several factors need to be considered. […] For both primary fluorescence and orthogonal absorbance assays, non-binding 1536-well assay plates were used, and 0.05% BSA was included in the assay buffer to minimize the issues associated with protein sticking to plastics. The substrate Km values were determined in two separate experiments using two different batches of IRAP protein. For this, the IRAP progress curve was monitored every 5 min for 2 h using an Envision multimode plate reader (PerkinElmer, Waltham, MA, USA).
First, 10 nL of test compounds (4 mM) or 100% DMSO was dispensed into the 1536-well assay plates using an Echo acoustic liquid handler (Beckman Coulter, Brea, CA, USA). Then, 2 μL of protein working solution (5 × 10^−4 mg/mL) was dispensed to the negative control (min effect) and compound wells (final well concentration 2.5 × 10^−4 mg/mL) using a Certus Flex liquid dispenser (Fritz Gyger AG, Thun, Switzerland) and 2 μL assay buffer to the positive control wells (max effect) using a FLEXdrop (PerkinElmer, Waltham, MA, USA).
Figure S9. Reference compounds in Fluorescence IRAP assay with different end volumes in 1536-well format.
mg/ml) and 2 or 4 µL L -Leucine-7-amido-4-methylcoumarin (f.a.c.
Plates were measured on the Envision every 10 minutes for 140 minutes (data
shown up to 2 hours). %Effect was calculated using no protein as MAX effect (assay buffer was added instead of IRAP).

IRAP [5] = molecular target: T1, IRAP; assay: Orthogonal absorbance IRAP assay (L-Leucine para-nitroanilide cleavage); type: biochemical; settings: for IC50: read-out: Absorbance pIC50 (converted)
Text: The primary biochemical assay was developed to measure the enzymatic activity of IRAP. […] To establish an orthogonal assay, an alternative L-Leucine para-nitroanilide substrate was used, which IRAP turns over to L-Leucine and para-nitroaniline and is measurable by absorbance at 405 nm (Supplementary Figure S2B).
To ensure biochemically sound, optimal, robust, and affordable assay conditions for large-scale screening, several factors need to be considered. These include the final concentration of substrates, based on the determined substrate Km value; the assay kinetics and reaction linearity; achieving a minimal, rate limiting protein concentration; identifying optimal buffer additives and concentrations; the choice of assay plate type; the final assay volume per well; the stability of reagents; the magnitude and variance of the signal; and the potency and rank order of reference compounds. For both primary fluorescence and orthogonal absorbance assays, non-binding 1536-well assay plates were used, and 0.05% BSA was included in the assay buffer to minimize the issues associated with protein sticking to plastics. The substrate Km values were determined in two separate experiments using two different batches of IRAP protein. For this, the IRAP progress curve was monitored every 5 min for 2 h using an Envision multimode plate reader (PerkinElmer, Waltham, MA, USA). […] To evaluate if using substrate concentrations close to the determined Km values results in sufficient dynamic range within the linear range of the enzymatic reaction, Z′ and S/B were calculated for multiple time points up to 2.5 h in the presence and absence of reference compounds in both assays. The primary fluorescence assay reached an optimal Z′-value after 1 h when using 37.5 μM substrate (Supplementary Figure S5). For the absorbance, 2 h was required for the enzyme reaction time; however, using ~0.4 mM substrate was associated with increased assay variation and a poor Z′ (Supplementary Figure S6).
The orthogonal assay was performed in a black non-binding 1536-well plate (Corning 3728) and sealed with universal lids (Corning 3098). First, 20 nL of test compounds (4 mM) or 100% DMSO was dispensed into the 1536-well assay plates using an Echo acoustic liquid handler (Beckman Coulter). Then, 4 μL of protein working solution (5 × 10^−4 mg/mL) was dispensed to the negative control (min effect) and compound wells (final well concentration 2.5 × 10^−4 mg/mL) using the Certus Flex liquid dispenser (Fritz Gyger AG) and 4 μL assay buffer to the positive control wells (max effect) using the FLEXdrop (PerkinElmer). Next, 4 μL of 2 mM substrate working solution was dispensed into all wells using the FLEXdrop (final well concentration 1 mM). The assay plates were then centrifuged at 187.5× g for 30 s, incubated in the dark at RT for 120 min, and finally read on an Envision plate reader (PerkinElmer) (absorbance at 405 nm, 10 flashes per second). During the dose–response curve analysis in the orthogonal assay, 80 nL of compound (range 2.00 × 10^−3 M–2.74 × 10^−6 M) or 100% DMSO was dispensed into the assay plates using an Echo acoustic liquid handler (Beckman Coulter) with final well concentration range of 20 μM–27.4 nM compound and 1% DMSO.

[6] = screening hits at 30 µM, 1% DMSO
[7] = 37.5 µM L-Leucine-7-amido-4-methylcoumarin, 60 min RT, dose-response 20 µM-27.4 nM, read-out: Fluorescence IC50
[8] = 1 mM L-Leucine p-Nitroanilide, 120 min RT
[9] = 1536-well format, steady-state velocity, read-out: Km (substrate)
[10] = 37.5 µM L-Leucine-7-amido-4-methylcoumarin, 60 min RT, dose-response 20 µM-27.4 nM, read-out: Fluorescence pIC50 (converted)

T1 sequence (Q9UIQ6 155-1025 limits assumed): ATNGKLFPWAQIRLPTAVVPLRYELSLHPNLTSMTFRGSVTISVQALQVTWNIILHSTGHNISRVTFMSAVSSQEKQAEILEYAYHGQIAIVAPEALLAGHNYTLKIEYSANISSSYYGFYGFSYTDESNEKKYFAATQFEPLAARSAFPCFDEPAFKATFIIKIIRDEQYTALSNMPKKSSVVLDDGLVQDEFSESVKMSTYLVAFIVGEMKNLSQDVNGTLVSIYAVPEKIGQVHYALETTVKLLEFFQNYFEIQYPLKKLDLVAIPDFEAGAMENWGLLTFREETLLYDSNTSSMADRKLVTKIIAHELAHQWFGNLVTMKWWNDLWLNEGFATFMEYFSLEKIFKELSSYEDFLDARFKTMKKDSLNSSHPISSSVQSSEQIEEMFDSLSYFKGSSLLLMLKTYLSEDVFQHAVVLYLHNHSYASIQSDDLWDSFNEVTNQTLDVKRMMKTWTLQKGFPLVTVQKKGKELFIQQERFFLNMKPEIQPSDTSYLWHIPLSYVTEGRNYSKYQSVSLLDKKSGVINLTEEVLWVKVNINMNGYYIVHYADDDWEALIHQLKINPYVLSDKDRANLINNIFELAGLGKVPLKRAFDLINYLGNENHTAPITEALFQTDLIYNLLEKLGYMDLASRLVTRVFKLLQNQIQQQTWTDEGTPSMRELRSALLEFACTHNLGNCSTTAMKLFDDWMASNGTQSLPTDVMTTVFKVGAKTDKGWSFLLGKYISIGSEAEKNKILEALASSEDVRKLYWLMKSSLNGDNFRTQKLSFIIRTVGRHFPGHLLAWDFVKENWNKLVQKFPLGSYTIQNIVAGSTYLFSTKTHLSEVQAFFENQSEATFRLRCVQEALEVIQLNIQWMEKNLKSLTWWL

| IC50 (IRAP [4]; [7]) [nM] | LipE (IRAP [4]) | ΔTm at 30 µM (IRAP [1]; [6]) [°C] | IC50 (IRAP [3]) [nM] | IC50 (IRAP [4]; [10]) [nM] | IC50 (IRAP [5]; [8]) [nM] | Compound | Enzyme Active [2] | Targets active [2] | Enzyme Active % [2] [%] | Targets Active % [2] [%] | also measured |
| --- | --- | --- | --- | --- | --- | --- | --- | --- | --- | --- | --- |
| 3980 | 0.29 | – | – | – | – | Cc1ccc(-c2nc(C3CCCN3C(=O)NCc3ccccc3)n3ccccc23)cc1 (racemic) [QHL36] | 4 | 6 | 7.1 | 5.8 | TSA (∆°C), thermal shift of IRAP (IRAP [1]; [6]): 0.3 °C; Fluorescence + Zn pIC50 (IRAP [3]): 5.31; Fluorescence pIC50 (IRAP [4]; 37.5 µM L-Leucine-7-amido-4-methylcoumarin, 60 min RT, dose-response 20 µM-27.4 nM): 5.40; Absorbance pIC50 (IRAP [5]; [8]): 5.80 |
| – | – | – | – | – | – | O=S(=O)(Nc1cccc(-c2nnn[nH]2)c1)c1cc(Cl)c(Cl)cc1Cl [I, reference compound] | – | – | – | – | stabilization of the thermal melting temperature of IRAP (IRAP [1]; 10-point half-log concentration series): dose-dependent and saturable; IRAP Tm (IRAP [1]; compound at 400 µM): 69.05 ± 0.17 °C; LogEC50 (best-fit) (IRAP [4]; 4 µl end volume, 30 min): -4.565; EC50 (IRAP [4]; 4 µl end volume, 30 min): 27200 nM; LogEC50 (best-fit) (IRAP [4]; 4 µl end volume, 60 min): -4.541; EC50 (IRAP [4]; 4 µl end volume, 60 min): 28800 nM; LogEC50 (best-fit) (IRAP [4]; 4 µl end volume, 90 min): -4.517; EC50 (IRAP [4]; 4 µl end volume, 90 min): 30400 nM; LogEC50 (best-fit) (IRAP [4]; 4 µl end volume, 120 min): -4.5; EC50 (IRAP [4]; 4 µl end volume, 120 min): 31600 nM; LogEC50 (best-fit) (IRAP [4]; 8 µl end volume, 30 min): -4.385; EC50 (IRAP [4]; 8 µl end volume, 30 min): 41200 nM; LogEC50 (best-fit) (IRAP [4]; 8 µl end volume, 60 min): -4.449; EC50 (IRAP [4]; 8 µl end volume, 60 min): 35600 nM; LogEC50 (best-fit) (IRAP [4]; 8 µl end volume, 90 min): -4.469; EC50 (IRAP [4]; 8 µl end volume, 90 min): 34000 nM; LogEC50 (best-fit) (IRAP [4]; 8 µl end volume, 120 min): -4.427; EC50 (IRAP [4]; 8 µl end volume, 120 min): 37400 nM |
| – | – | – | – | – | – | CC(C)C[C@H](N)C(=O)Nc1ccc([N+](=O)[O-])cc1 [L-Leucine p-Nitroanilide, reference compound] | – | – | – | – | Km (IRAP [5]; [9]): 380 µM |
| – | – | – | – | – | – | Cc1cc(=O)oc2cc(NC(=O)[C@@H](N)CC(C)C)ccc12 [L-Leucine-7-amido-4-methylcoumarin, reference compound] | – | – | – | – | Km (IRAP [4]; [9]): 36.6 µM |
| – | 4.85 | 6.77 | 316 | 316 | 871 | O=C(Cc1ccccc1S(=O)(=O)N1CCc2ccccc2C1)NO [QHL1, 2-(2-((3,4-dihydroisoquinolin-2(1H)-yl)sulfonyl)phenyl)-N-hydroxyacetamide] | 2 | 7 | 2.1 | 4.7 | – |
| – | 4.89 | 3.7 | 339 | 355 | 794 | O=C(NO)C(CS(=O)(=O)N1CCC(c2ccc(F)cc2Cl)C1)C1CCOCC1 (stereo not drawn) [QHL2] | 4 | 5 | 4.3 | 3.4 | – |
| – | 4.08 | 5.22 | 389 | 380 | 708 | CC(C)C(CS(=O)(=O)N(Cc1cc2ccccc2o1)C(C)C)C(=O)NO (stereo not drawn) [QHL3] | 3 | 4 | 3.2 | 2.7 | – |
| 710 | 2.51 | 4 | 676 | – | 2000 | COc1ccc(S(=O)(=O)CCC(CCCc2ccccc2)C(=O)NO)cc1 (stereo not drawn) [QHL4] | 3 | 5 | 3.2 | 3.4 | – |
| 1200 | 3.79 | 4.29 | 1120 | – | 1950 | O=C(NO)C1(CS(=O)(=O)N2CCC(c3ccc(F)cc3Cl)C2)CCC1 (stereo not drawn) [QHL5] | 3 | 4 | 3.3 | 2.7 | – |
